Results reported in PubChem BioAssay (NCI).
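Grown in 96-well plates, cells were treated for 48 hours with each compound at five concentrations. Insufficient inhibition: endpoint recorded as highest concentration tested. The concentration for full growth arrest is given as TGI.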

Experiments:
Experiment in all cases: NCI anticancer screen, dose series, 48 h
[1] = test system: CCRF-CEM leukemia
[2] = test system: COLO 205 colon
[3] = test system: SF-295 CNS
[4] = test system: NCI-H23 lung
[5] = test system: DLD-1 colon
[6] = test system: NCI-H226 lung
[7] = test system: DMS 273 small cell lung
[8] = test system: SNB-19 CNS
[9] = test system: HCT-116 colon
[10] = test system: A549 NSCLC
[11] = test system: RPMI-8226 leukemia
[12] = test system: SF-539 CNS
[13] = test system: SR leukemia
[14] = test system: KM20L2 colon
[15] = test system: OVCAR-4 ovarian
[16] = test system: U251 CNS
[17] = test system: MALME-3M melanoma
[18] = test system: OVCAR-5 ovarian
[19] = test system: HCT-15 colon
[20] = test system: DMS 114 small cell lung
[21] = test system: MOLT-4 leukemia
[22] = test system: SK-MEL-28 melanoma
[23] = test system: SK-MEL-5 melanoma
[24] = test system: UO-31 renal
[25] = test system: HT29 colon
[26] = test system: HL-60(TB) leukemia
[27] = test system: SK-OV-3 ovarian
[28] = test system: TK-10 renal
[29] = test system: CAKI-1 renal
[30] = test system: SNB-75 CNS
[31] = test system: HOP-62 NSCLC
[32] = test system: HOP-18 NSCLC
[33] = test system: A498 renal
[34] = test system: 786-0 renal
[35] = test system: K-562 leukemia
[36] = test system: KM12 colon
[37] = test system: SNB-78 CNS
[38] = test system: SW-620 colon
[39] = test system: NCI-H460 lung
[40] = test system: M19-MEL melanoma
[41] = test system: OVCAR-8 ovarian
[42] = test system: RXF 393 renal
[43] = test system: LOX IMVI melanoma
[44] = test system: HCC-2998 colon
[45] = test system: SN12C renal
[46] = test system: IGROV1 ovarian
[47] = test system: ACHN renal
[48] = test system: M14 melanoma
[49] = test system: SK-MEL-2 melanoma
[50] = test system: HOP-92 NSCLC
[51] = test system: UACC-257 melanoma
[52] = test system: NCI-H522 lung
[53] = test system: UACC-62 melanoma
[54] = test system: LXFL 529 NSCLC
[55] = test system: SF-268 CNS
[56] = test system: OVCAR-3 ovarian
[57] = test system: EKVX NSCLC

Compound: CCCCCCCCCCCCCCCC/C(C(=O)OC)=C(/O)C(=O)OCC
- TGI [1]: > 100 µM
- TGI [2]: > 100 µM
- TGI [3]: > 100 µM
- TGI [4]: > 100 µM
- TGI [5]: > 100 µM
- TGI [6]: > 100 µM
- TGI [7]: > 100 µM
- TGI [8]: > 100 µM
- TGI [9]: > 100 µM
- TGI [10]: > 100 µM
- TGI [11]: > 100 µM
- TGI [12]: > 100 µM
- TGI [13]: > 100 µM
- TGI [14]: > 100 µM
- TGI [15]: > 100 µM
- TGI [16]: > 100 µM
- TGI [17]: > 100 µM
- TGI [18]: > 100 µM
- TGI [19]: > 100 µM
- TGI [20]: > 100 µM
- TGI [21]: > 100 µM
- TGI [22]: > 100 µM
- TGI [23]: > 100 µM
- TGI [24]: > 100 µM
- TGI [25]: > 100 µM
- TGI [26]: > 100 µM
- TGI [27]: > 100 µM
- TGI [28]: > 100 µM
- TGI [29]: > 100 µM
- TGI [30]: > 100 µM
- TGI [31]: > 100 µM
- TGI [32]: > 100 µM
- TGI [33]: > 100 µM
- TGI [34]: > 100 µM
- TGI [35]: > 100 µM
- TGI [36]: > 100 µM
- TGI [37]: > 100 µM
- TGI [38]: > 100 µM
- TGI [39]: > 100 µM
- TGI [40]: > 100 µM
- TGI [41]: > 100 µM
- TGI [42]: > 100 µM
- TGI [43]: > 100 µM
- TGI [44]: > 100 µM
- TGI [45]: > 100 µM
- TGI [46]: > 100 µM
- TGI [47]: > 100 µM
- TGI [48]: > 100 µM
- TGI [49]: > 100 µM
- TGI [50]: 84.9 µM
- TGI [51]: > 100 µM
- TGI [52]: > 100 µM
- TGI [53]: > 100 µM
- TGI [54]: > 100 µM
- TGI [55]: > 100 µM
- TGI [56]: > 100 µM

Compound: O=C(c1ccccc1)N1CCN2CCN=C(c3ccccc3)C21c1ccccc1 (configuration not stated)
- TGI [1]: > 100 µM
- TGI [2]: > 100 µM
- TGI [3]: > 100 µM
- TGI [4]: > 100 µM
- TGI [5]: > 100 µM
- TGI [6]: > 100 µM
- TGI [7]: > 100 µM
- TGI [8]: > 100 µM
- TGI [9]: > 100 µM
- TGI [10]: > 100 µM
- TGI [11]: > 100 µM
- TGI [12]: > 100 µM
- TGI [14]: > 100 µM
- TGI [15]: > 100 µM
- TGI [16]: > 100 µM
- TGI [17]: > 100 µM
- TGI [20]: > 100 µM
- TGI [21]: > 100 µM
- TGI [22]: > 100 µM
- TGI [23]: > 100 µM
- TGI [24]: > 100 µM
- TGI [25]: > 100 µM
- TGI [26]: > 100 µM
- TGI [27]: > 100 µM
- TGI [28]: > 100 µM
- TGI [30]: > 100 µM
- TGI [31]: > 100 µM
- TGI [32]: > 100 µM
- TGI [33]: > 100 µM
- TGI [34]: > 100 µM
- TGI [35]: > 100 µM
- TGI [36]: > 100 µM
- TGI [37]: > 100 µM
- TGI [38]: > 100 µM
- TGI [39]: > 100 µM
- TGI [40]: > 100 µM
- TGI [41]: > 100 µM
- TGI [42]: > 100 µM
- TGI [43]: > 100 µM
- TGI [44]: > 100 µM
- TGI [46]: > 100 µM
- TGI [47]: > 100 µM
- TGI [48]: > 100 µM
- TGI [49]: > 100 µM
- TGI [50]: > 100 µM
- TGI [51]: > 100 µM
- TGI [53]: > 100 µM
- TGI [54]: > 100 µM
- TGI [56]: > 100 µM
- TGI [57]: > 100 µM

Compound: COc1ccc(/C(=N/O)C(c2ccc(OC)cc2)C2C(=O)Oc3ccccc32)cc1 (configuration not stated)
- TGI [1]: > 100 µM
- TGI [2]: 7.05 µM
- TGI [3]: 11.7 µM
- TGI [4]: > 100 µM
- TGI [5]: > 100 µM
- TGI [6]: > 100 µM
- TGI [9]: > 100 µM
- TGI [10]: > 100 µM
- TGI [11]: > 100 µM
- TGI [12]: > 100 µM
- TGI [13]: > 100 µM
- TGI [15]: > 100 µM
- TGI [16]: > 100 µM
- TGI [17]: > 100 µM
- TGI [18]: > 100 µM
- TGI [19]: > 100 µM
- TGI [20]: 79.9 µM
- TGI [21]: > 100 µM
- TGI [22]: > 100 µM
- TGI [23]: 68.2 µM
- TGI [24]: > 100 µM
- TGI [25]: > 100 µM
- TGI [26]: > 100 µM
- TGI [27]: > 100 µM
- TGI [28]: > 100 µM
- TGI [29]: > 100 µM
- TGI [30]: > 100 µM
- TGI [32]: > 100 µM
- TGI [33]: > 100 µM
- TGI [34]: > 100 µM
- TGI [35]: > 100 µM
- TGI [36]: > 100 µM
- TGI [37]: > 100 µM
- TGI [38]: > 100 µM
- TGI [39]: > 100 µM
- TGI [40]: > 100 µM
- TGI [41]: > 100 µM
- TGI [43]: > 100 µM
- TGI [44]: > 100 µM
- TGI [45]: > 100 µM
- TGI [46]: > 100 µM
- TGI [47]: > 100 µM
- TGI [48]: > 100 µM
- TGI [49]: > 100 µM
- TGI [50]: 80.6 µM
- TGI [51]: > 100 µM
- TGI [52]: > 100 µM
- TGI [53]: > 100 µM
- TGI [54]: > 100 µM
- TGI [55]: > 100 µM
- TGI [57]: > 100 µM
